Reference: JP2006306850A, “置換ベンズアニリド化合物及び有害生物防除剤” (priority 2005, dated 2006)
Read-outs that look alike come from different tables or passages of the source.

Tests used:
Type in all cases: in vivo
Conditions in all cases: 144 h, read-out: mortality rate
[1] = tested on: diamondback moth [コナガ(Plutella xylostella)]; experiment: 試験例1 コナガに対する殺虫試験 (insecticidal test, 2nd instar larvae)
[2] = tested on: common cutworm [ハスモンヨトウ(Spodoptera litura)]; experiment: 試験例2 ハスモンヨトウに対する殺虫試験 (insecticidal test, 2nd instar larvae)
[3] = tested on: cucurbit leaf beetle [ウリハムシ(Aulacophora femoralis)]; experiment: 試験例4 ウリハムシに対する殺虫試験 (insecticidal test, 2nd instar larvae)
[4] = tested on: oriental tea tortrix [チャハマキ(Homona magnanima)]; experiment: 試験例3 チャハマキに対する殺虫試験 (insecticidal test, 2nd instar larvae)
[5] = 100 ppm, leaf dip, 2nd instar, 6 days, 25℃

SMILES | mortality at 100 ppm [1] [%] | mortality at 100 ppm [2] [%] | mortality at 500 ppm [3] [%] | mortality at 100 ppm [4] [%] | mortality at 100 ppm [1, 5] [%] | mortality at 100 ppm [2, 5] [%] | mortality at 100 ppm [4, 5] [%] | mortality at 500 ppm ([3]; 500 ppm, leaf dip, 2nd instar, 6 days, 25℃) [%]
Cc1cc(C(O)(COc2ccc(Cl)cc2)C(F)(F)F)ccc1NC(=O)c1cccc(I)c1C(=O)NC(C)C (centres unmarked) [2-004] | 100 | ≥ 80 | 100 |  |  |  |  | 
Cc1cc(C(O)(c2ccc(OC(F)(F)F)cc2)C(F)(F)F)ccc1NC(=O)c1cccc(I)c1C(=O)NC(C)C (centres unmarked) [1-009] | 100 | ≥ 80 | 100 | ≥ 80 |  |  |  | 
Cc1cc2c(cc1NC(=O)c1cccc(I)c1C(=O)NC(C)C)OC(F)(F)C2(O)C(F)(F)F (centres unmarked) [4-002] | 100 | ≥ 80 | 100 | ≥ 80 |  |  |  | 
Cc1cc(C(C)(O)c2ccc(C(F)(F)F)cn2)ccc1NC(=O)c1cccc(I)c1C(=O)NC(C)C (centres unmarked) [2-001] | 100 | ≥ 80 | 100 |  |  |  |  | 
Cc1cc(C(O)(C(F)(F)F)C(F)(F)Oc2ccc(Cl)cc2)ccc1NC(=O)c1cccc(I)c1C(=O)NC(C)C (centres unmarked) [2-008] | 100 | ≥ 80 | 100 | ≥ 80 |  |  |  | 
Cc1cc(C(O)(c2ccc3c(c2)OC(F)(F)C(F)(F)O3)C(F)(F)F)ccc1NC(=O)c1cccc(I)c1C(=O)NC(C)C (centres unmarked) [1-028] | 100 | ≥ 80 | 100 | ≥ 80 |  |  |  | 
Cc1cc(C(O)(C=Cc2ccc(Cl)cc2)C(F)(F)F)ccc1NC(=O)c1cccc(I)c1C(=O)NC(C)C (centres unmarked) [2-018] | 100 | ≥ 80 | 100 | ≥ 80 |  |  |  | 
COC(c1ccc(Cl)cc1)(c1ccc(NC(=O)c2cccc(I)c2C(=O)NC(C)C)c(C)c1)C(F)(F)F (centres unmarked) [3-002] | 100 | ≥ 80 |  | ≥ 80 |  |  |  | 
Cc1cc(C(O)(c2ccc(OS(C)(=O)=O)cc2)C(F)(F)F)ccc1NC(=O)c1cccc(I)c1C(=O)NC(C)C (centres unmarked) [1-015] | 100 | ≥ 80 |  |  |  |  |  | 
Cc1cc(C(O)(c2ccc(OC(F)(F)Br)cc2)C(F)(F)F)ccc1NC(=O)c1cccc(I)c1C(=O)NC(C)C (centres unmarked) [1-010] |  |  |  |  | 100 | ≥ 80 | ≥ 80 | 100
